Test results: patent US20240000767A1, “COMBINATION OF AN ALPHA2-ADRENOCEPTOR SUBTYPE C (ALPHA-2C) ANTAGONIST WITH A TASK1/3 CHANNEL BLOCKER FOR THE TREATMENT OF SLEEP APNEA” (Bayer Aktiengesellschaft, priority 2020, published 2024)

These molecules were tested against human ADRA2C receptor (Homo sapiens (Human), UniProt P18825) (assay: In vitro activity assay to determine the inhibition of recombinant ADRA2C (CHO-K1 cells, aequorin bioluminescence)). Conditions: inhibition of noradrenaline-induced bioluminescence signal; some mean values from multiple determinations; read-out: ARα2C IC50.
Sequence of human ADRA2C receptor (P18825 whole entry): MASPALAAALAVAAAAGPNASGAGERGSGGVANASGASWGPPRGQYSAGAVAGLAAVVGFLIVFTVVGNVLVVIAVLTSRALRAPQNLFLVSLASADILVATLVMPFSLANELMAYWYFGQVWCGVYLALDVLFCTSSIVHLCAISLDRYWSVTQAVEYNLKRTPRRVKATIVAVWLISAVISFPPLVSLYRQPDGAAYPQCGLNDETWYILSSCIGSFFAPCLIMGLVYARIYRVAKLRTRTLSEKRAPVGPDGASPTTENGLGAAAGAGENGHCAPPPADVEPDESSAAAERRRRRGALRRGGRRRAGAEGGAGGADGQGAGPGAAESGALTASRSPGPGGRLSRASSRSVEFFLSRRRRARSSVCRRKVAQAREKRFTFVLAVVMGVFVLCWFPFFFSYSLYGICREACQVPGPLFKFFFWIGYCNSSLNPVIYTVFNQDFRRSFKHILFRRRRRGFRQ
Format: cell-based
Procedure: B-2. In Vitro Activity Assay to Determine the Inhibition of Recombinant ADRA2C
The human ADRA2C receptor belongs to the G protein(guanine-dependent protein)-coupled receptors, the main function of which is the transduction of signals into the interior of the cell.
The investigations of the inhibition of the recombinant human ADRA2C receptors were carried out with stabily transfected CHO-K1 cells coexpressing the Gaq protein and the calcium-sensitive photoprotein aequorin. In this recombinant system, binding of the agonists noradrenaline to the ADRA2C receptor leads, after activation of a signal cascade, to calcium release from intracellular stores, which is detected by the intracellular calcium sensor aequorin as a bioluminescent signal. The method is described in detail in the reference below. [Wunder F., Kalthof B., Muller T., Hueser J. Functional Cell-Based Assays in Microliter Volumes for Ultra-High Throughput Screening. Combinatorial Chemistry & High Throughput Screening, Volume 11, Number 7, 2008, pp. 495-504(10). doi.org/10.2174/138620708785204054]
The activity of the test substances was determined via their ability to inhibit the agonist-induced increase of the bioluminescence signal. The concentration which can block half of this signal increase is referred to as IC50. The IC50 value is calculated using the 4 parameter logistic function (Hill function):
Top=upper threshold, Bottom=lower threshold, Slope=slope, IC50=turning point

IC50 [nM]	Compound
73.5	C[C@@H]1CCCN(C2CCN(c3ncc(C(=O)NCc4ncc(F)cc4F)s3)CC2F)C1 (mixture of isomers) [Example 50, diamix-N-[(3,5-Difluoropyridin-2-yl)methyl]-2-[(3R)-3′-fluoro-3-methyl[1,4′-bipiperidin]-1′-yl]-1,3-thiazole-5-carboxamide]
150	CC(NC(=O)c1cnc(N2CCC(N3CCC[C@@H](C)C3)CC2)s1)c1ncc(F)cc1F (mixture of isomers) [Example 55, diamix-N-[1-(3,5-Difluoropyridin-2-yl)ethyl]-2-[(3R)-3-methyl[1,4′-bipiperidin]-1′-yl]-1,3-thiazole-5-carboxamide]
0.49	C[C@@H]1CCCN(C2CCN(c3nc(C(=O)NCc4ncc(F)cc4F)cs3)CC2F)C1 (mixture of isomers) [Example 111, diamix-N-[(3,5-Difluoropyridin-2-yl)methyl]-2-[(3R)-3′-fluoro-3-methyl[1,4′-bipiperidin]-1′-yl]-1,3-thiazole-4-carboxamide]
1.2	C[C@@H]1CCCN(C2CCN(c3nc(C(=O)NCc4ncc(F)cc4F)co3)CC2F)C1 (mixture of isomers) [Example 112, diamix-N-[(3,5-Difluoropyridin-2-yl)methyl]-2-[(3R)-3′-fluoro-3-methyl[1,4′-bipiperidin]-1′-yl]-1,3-oxazole-4-carboxamide]
0.61	C[C@@H]1CCCN(C2CCN(c3ncc(C(=O)NCc4cc(Cl)ccc4F)s3)CC2F)C1 (mixture of isomers) [Example 113, diamix-N-(5-Chloro-2-fluorobenzyl)-2-[(3R)-3′-fluoro-3-methyl[1,4′-bipiperidin]-1′-yl]-1,3-thiazole-5-carboxamide]
0.65	CC(NC(=O)c1cnc(N2CCC(N3CCC[C@@H](C)C3)C(F)C2)s1)c1cc(F)ccc1F (mixture of isomers) [Example 117, diamix-N-[1-(2,5-Difluorophenyl)ethyl]-2-[(3R)-3′-fluoro-3-methyl[1,4′-bipiperidin]-1′-yl]-1,3-thiazole-5-carboxamide]
2.9	O=C(NCc1ncc(F)cc1F)c1cnc(N2CCC(N3CCCC(CC4CC4)C3)CC2)s1 (racemic) [Example 3, 2-[3-(Cyclopropylmethyl)[1,4′-bipiperidin]-1′-yl]-N-[(3,5-difluoropyridin-2-yl)methyl]-1,3-thiazole-5-carboxamide (racemate)]
169	O=C(NCc1ncc(F)cc1F)c1cnc(N2CCC(N3CCCC(C(F)F)C3)CC2)s1 (racemic) [Example 4, 2-[3-(difluoromethyl)[1,4′-bipiperidin]-1′-yl]-N-[(3,5-difluoropyridin-2-yl)methyl]-1,3-thiazole-5-carboxamide (racemate)]
335	O=C(NCc1ncc(F)cc1F)c1cnc(N2CCC(N3CCCC(C(F)(F)F)C3)CC2)s1 (racemic) [Example 5, N-[(3,5-difluoropyridin-2-yl)methyl]-2-[3-(trifluoromethyl)[1,4′-bipiperidin]-1′-yl]-1,3-thiazole-5-carboxamide (racemate)]
335	O=C(NCc1ncc(F)cc1F)c1cnc(N2CCC(N3CCCC(CF)C3)CC2)s1 (racemic) [Example 6, N-[(3,5-difluoropyridin-2-yl)methyl]-2-[3-(fluoromethyl)[1,4′-bipiperidin]-1′-yl]-1,3-thiazole-5-carboxamide (racemate)]
49.6	O=C(NCc1ncc(F)cc1F)c1cnc(N2CCC(N3CCCC(OCC4CC(F)(F)C4)C3)CC2)s1 (racemic) [Example 7, 2-{3-[(3,3-difluorocyclobutyl)methoxy][1,4′-bipiperidin]-1′-yl}-N-[(3,5-difluoropyridin-2-yl)methyl]-1,3-thiazole-5-carboxamide (racemate)]
2000	O=C(NCc1ncc(F)cc1F)c1cnc(N2CCC(N3CCCC(OC(F)F)C3)CC2)s1 (racemic) [Example 16, 2-[3-(Difluoromethoxy)[1,4′-bipiperidin]-1′-yl]-N-[(3,5-difluoropyridin-2-yl)methyl]-1,3-thiazole-5-carboxamide (racemate)]
26.5	CCC1CCCN(C2CCN(c3ncc(C(=O)NCc4ncc(F)cc4F)s3)CC2)C1 (racemic) [Example 17, N-[(3,5-Difluoropyridin-2-yl)methyl]-2-(3-ethyl[1,4′-bipiperidin]-1′-yl)-1,3-thiazole-5-carboxamide (racemate)]
17	COCC1CCCN(C2CCN(c3ncc(C(=O)NCc4ncc(F)cc4F)s3)CC2)C1 (racemic) [Example 48, rac-N-[(3,5-Difluoropyridin-2-yl)methyl]-2-[3-(methoxymethyl)[1,4′-bipiperidin]-1′-yl]-1,3-thiazole-5-carboxamide]
110	CC1CCCN(C2CCN(c3ncc(C(=O)NCc4ncc(F)cc4F)s3)CC2)CC1 (racemic) [Example 53, rac-N-[(3,5-Difluoropyridin-2-yl)methyl]-2-[4-(4-methylazepan-1-yl)piperidin-1-yl]-1,3-thiazole-5-carboxamide]
230	CC1CCCCN(C2CCN(c3ncc(C(=O)NCc4ncc(F)cc4F)s3)CC2)C1 (racemic) [Example 54, rac-N-[(3,5-Difluoropyridin-2-yl)methyl]-2-[4-(3-methylazepan-1-yl)piperidin-1-yl]-1,3-thiazole-5-carboxamide]
11	O=C(NCc1ncc(F)cc1F)c1cnc(N2CCC(N3CCCC(COCC(F)(F)F)C3)CC2)s1 (racemic) [Example 59, rac-N-[(3,5-Difluoropyridin-2-yl)methyl]-2-{3-[(2,2,2-trifluoroethoxy)methyl][1,4′-bipiperidin]-1′-yl}-1,3-thiazole-5-carboxamide]
74	O=C(NCc1ncc(F)cc1F)c1cnc(N2CCC(N3CCCC(COCC4(CF)CC4)C3)CC2)s1 (racemic) [Example 60, rac-N-[(3,5-Difluoropyridin-2-yl)methyl]-2-[3-({[1-(fluoromethyl)cyclopropyl]methoxy}methyl)[1,4′-bipiperidin]-1′-yl]-1,3-thiazole-5-carboxamide]
87	O=C(NCc1ncc(F)cc1F)c1cnc(N2CCC(N3CCCC(COCC4(C(F)F)CC4)C3)CC2)s1 (racemic) [Example 61, rac-2-[3-({[1-(Difluoromethyl)cyclopropyl]methoxy}methyl)[1,4′-bipiperidin]-1′-yl]-N-[(3,5-difluoropyridin-2-yl)methyl]-1,3-thiazole-5-carboxamide]
130	O=C(NCc1ncc(F)cc1F)c1cnc(N2CCC(N3CCCC(COCC4(C(F)(F)F)CC4)C3)CC2)s1 (racemic) [Example 62, rac-N-[(3,5-Difluoropyridin-2-yl)methyl]-2-[3-({[1-(trifluoromethyl)cyclopropyl]methoxy}methyl)[1,4′-bipiperidin]-1′-yl]-1,3-thiazole-5-carboxamide]
4.5	O=C(NCc1ncc(F)cc1F)c1cnc(N2CCC(N3CCCC4(C3)CC4(F)F)CC2)s1 (racemic) [Example 65, rac-2-[4-(1,1-Difluoro-5-azaspiro[2.5]octan-5-yl)piperidin-1-yl]-N-[(3,5-difluoropyridin-2-yl)methyl]-1,3-thiazole-5-carboxamide]
2.2	O=C(NCc1ncc(F)cc1F)c1cnc(N2CCC(N3CCCC(OCC4CC4)C3)CC2)s1 (racemic) [Example 67, rac-2-[3-(Cyclopropylmethoxy)[1,4′-bipiperidin]-1′-yl]-N-[(3,5-difluoropyridin-2-yl)methyl]-1,3-thiazole-5-carboxamide]
5.5	O=C(NCc1ncc(F)cc1F)c1cnc(N2CCC(N3CCCC(COCC4CC4)C3)CC2)s1 (racemic) [Example 69, rac-2-{3-[(Cyclopropylmethoxy)methyl][1,4′-bipiperidin]-1′-yl}-N-[(3,5-difluoropyridin-2-yl)methyl]-1,3-thiazole-5-carboxamide]
22	CCOC1CCCN(C2CCN(c3ncc(C(=O)NCc4ncc(F)cc4F)s3)CC2)C1 (racemic) [Example 70, rac-N-[(3,5-Difluoropyridin-2-yl)methyl]-2-[3-ethoxy[1,4′-bipiperidin]-1′-yl]-1,3-thiazole-5-carboxamide]
345	O=C(NCc1ncc(F)cc1F)c1cnc(N2CCC(N3CCCC(COCC4CC(F)(F)C4)C3)CC2)s1 (racemic) [Example 75, rac-2-(3-{[(3,3-Difluorocyclobutyl)methoxy]methyl}[1,4′-bipiperidin]-1′-yl)-N-[(3,5-difluoropyridin-2-yl)methyl]-1,3-thiazole-5-carboxamide]
640	O=C(NCc1ncc(F)cc1F)c1cnc(N2CCC(N3CCCC(OCC(F)(F)F)C3)CC2)s1 (racemic) [Example 77, rac-N-[(3,5-Difluoropyridin-2-yl)methyl]-2-[3-(2,2,2-trifluoroethoxy)[1,4′-bipiperidin]-1′-yl]-1,3-thiazole-5-carboxamide]
0.83	CC(C)C1CCCN(C2CCN(c3ncc(C(=O)NCc4ncc(F)cc4F)s3)CC2)C1 (racemic) [Example 103, rac-N-[(3,5-Difluoropyridin-2-yl)methyl]-2-(3-isopropyl[1,4′-bipiperidin]-1′-yl)-1,3-thiazole-5-carboxamide]
0.85	O=C(NCc1ncc(F)cc1F)c1cnc(N2CCC(N3CCCC(OC4CCC4)C3)CC2)s1 (racemic) [Example 109, rac-2-[3-(Cyclobutyloxy)[1,4′-bipiperidin]-1′-yl]-N-[(3,5-difluoropyridin-2-yl)methyl]-1,3-thiazole-5-carboxamide]
